Measurements published in patent publication US20260144793A1, “METHODS OF TREATING CANCER” (AMGEN INC., priority 2022, published 2026).

Legend:
[1] = system: patients with KRAS G12C-mutated NSCLC, CRC, or other solid tumors; conditions: N = 27, all RMC-4630 doses with sotorasib 960 mg QD; TRAEs related to the labelled drug (combination: either drug)
Text: Note that D1D4 indicates administration of Day 1 and Day 4 of each 7 days.
Dose exploration will begin with treating 3-4 subjects at Dose Level 1. The study dose-limiting toxicity (DLT) period is 21 days. Once all subjects enrolled at a certain dose level and schedule are DLT evaluable, a Dose Level Review Team (DLRT) meeting will be convened. For any dose level (including Dose Level 1), and depending on observed safety data, the following may occur: 1) dose escalation to the next highest dose level or 2) additional enrollment to the current dose level or 3) dose de-escalation to the next lowest dose level. Rules for dose-escalation/de-escalation are derived using a modified Toxicity Probability Interval-2 (mTPI-2) model (Guo et al, 2017) with a target toxicity probability of 0.30 (Table 2)
The grading of adverse events will be based on the guidelines provided in the CTCAE version 5.0. […] A subject without a DLT will not be DLT evaluable if the date of decision to end both investigational products is before the completion of the DLT window.
The adverse event grading scale to be used for this study will be the CTCAE v5.0. The investigator is responsible for ensuring that all serious adverse events observed by the investigator or reported by the subject that occur after the signing of the informed consent through the safety follow-up visit or 30 days after last day of dosing interval of investigational product(s)/protocol-required therapies, whichever is later, are reported using the Events CRF. The criteria for grade 4 in the CTCAE grading scale differs from the regulatory criteria for serious adverse events. If adverse events correspond to a grade 4 CTCAE toxicity grading scale criteria (e.g., laboratory abnormality reported as grade 4 without manifestation of life-threatening status), it will be left to the investigator's judgment to also report these abnormalities as serious adverse events. For any adverse event that applies to this situation, comprehensive documentation of the event's severity must be recorded in the subject medical records. If the investigator becomes aware of serious adverse events suspected to be related to investigational products after the protocol-required reporting period is complete, then these serious adverse events will be reported within 24 hours following the investigator's awareness of the event using the Events CRF. Since a study endpoint is overall survival, the investigator will also need to collect/report fatal serious adverse events (regardless of causality) within 24 hours following investigator's awareness of the event. […] However, if the investigator becomes aware of serious adverse events suspected to be related to investigational products, then these serious adverse events will be reported within 24 hours following the investigator's awareness of the event. Serious adverse events reported outside of the protocol-required reporting period will be captured within the safety database as clinical trial cases and handled accordingly based on relationship to investigational product. If further safety related data is needed to fulfill any regulatory reporting requirements for a reportable event, then additional information may need to be collected from the subject's records after the subject ends the study.
The primary endpoint was safety/tolerability. Secondary endpoints included objective response rate per RECIST 1.1 and pharmacokinetics.

[2] = Phase 1b study of sotorasib in combination with RMC-4630: pharmacokinetic analysis; type: in vivo, human; conditions: sotorasib 960 mg QD + RMC-4630 100, 140 or 200 mg; compared with monotherapy studies
Text: The primary endpoint was safety/tolerability.

[3] = Concomitant administration of sotorasib with acid reducing agents; type: in vivo; conditions: with proton pump inhibitors (e.g., omeprazole) or H2-receptor antagonists (e.g., famotidine)
[4] = system: phosphorylation of extracellular signal-regulated kinase (ERK); conditions: preclinical studies; cited from earlier work

C=CC(=O)N1CCN(c2nc(=O)n(-c3c(C)ccnc3C(C)C)c3nc(-c4c(O)cccc4F)c(F)cc23)[C@@H](C)C1 [Sotorasib, 6-fluoro-7-(2-fluoro-6-hydroxyphenyl)-(1M)-1-[4-methyl-2-(propan-2-yl)pyridin-3-yl]-4-[(2S)-2-methyl-4-(prop-2-enoyl)piperazin-1-yl]pyrido[2,3-d]pyrimidin-2 (1H)-one]
AST increased, All Grades, % [1]: 4%
AST increased, Grade 3, % [1]: 4%
Ascites, All Grades, % [1]: 4%
Ascites, Grade 3, % [1]: 4%
Colitis, All Grades, % [1]: 4%
Colitis, Grade 3, % [1]: 4%
Diarrhea, All Grades, % [1]: 26%
Diarrhea, Grade 3, % [1]: 7%
Dry mouth, All Grades, % [1]: 11%
Dyspnea, All Grades, % [1]: 4%
Dyspnea, Grade 3, % [1]: 4%
Edema (general, peripheral, periorbital, facial), All Grades, % [1]: 26%
Fatigue, All Grades, % [1]: 11%
Total TRAE, All Grades, % [1]: 56%
Total TRAE, Grade 3, % [1]: 22%
Average exposure in the combination [2]: consistent with distributions observed in monotherapy studies
Sotorasib concentrations on concomitant administration [3]: decreased sotorasib concentrations
Inhibition of ERK phosphorylation [4]: inhibited nearly all detectable phosphorylation
